This is an account of results in publication PMC5601486, “Identification of 4-phenylquinolin-2(1H)-one as a specific allosteric inhibitor of Akt” (Scientific Reports, 2017).

Where two headings read alike, the source gives them in different places.

The test system of one experiment is LNCaP cells. Put plainly: MTS cell proliferation assay. Type of experiment: cell-based. The following applies: 1 day, 40% confluent. As for the experimental part: (§1) Neuro 2A cells or NIH/3T3 cells (ATCC) were seeded at various confluency in a 96-well plate in 100 µL DMEM containing 5% FBS or 10% FBS with 1% penicillin streptomucin, respectively, at 37 °C in a 5% CO2 and 95% humidity incubator for 18 hr. To each well 1 µL inhibitor with various concentrations or DMSO was added. The final concentrations of the tested inhibitors were 0, 5, 10, 20, 40 and 80 µM for G7 and LY, and 0, 5, 10, 20, 40 and 80 nM for Torin1, based on their respective IC50 values (~µM for G7 and LY and ~ nM for Torin 1). After 24 hr, 20 µL of CellTiter 96® AQueous One Solution Reagent (Promega) were added. The plate was placed in the incubator for 2 h and absorbance at 490 nm was measured with a Synergy HT Microplate Reader (Bio-Tek).
Fig. S8. Effect of G7 on proliferation of LNCaP cells. Cells that were 40% confluent in RPMI-1640 medium containing 10% FBS were treated with inhibitors for 1 day and subjected to MTS assays. *, µM for both G7 and LY and nM for Torin1. Data represent means ± SEM (n=3). G7, 4-phenylquinolin-2(1H)-one, LY, LY294002.
(In general: Tetrazolium assays rely on reduction of a dye to a coloured formazan, in cell work by metabolically active cells.)

The next experiment has as its system Akt S473 phosphorylation. Put plainly: pS473-Akt HTRF assay. Type of experiment: cell-based, Mouse. The following applies: Mus musculus, N2a, Neuro 2A cells. As for the experimental part: Neuro 2A cells were seeded (4,000 cells/well) in 4 µL of DMEM with 0.5% FBS and 1x Penicillin/Streptomycin in white solid bottom tissue-culture treated 1536-well plates (Greiner, 789173-F) with MultiDrop Combi Dispenser (Thermo Scientific). The cells were incubated for 24 h at 37 °C, 5% CO2, 95% humidity. Twenty-three nL of tested compounds were transferred to each well with an automated pin-tool station (Kalypsys). Following incubation for 15 min at 37 °C, 0.5 µL IGF (500 ng/mL of final concentration) was added and incubated for additional 40 min at 37 °C. After the addition of 1.5 µL 4x lysis buffer and 15-min incubation at room temperature (25 °C), 2 µL of HTRF® conjugated antibodies (fluorophore d2 conjugated anti-Akt monoclonal antibody and Europium^3+ cryptate-labeled anti-pS473-Akt monoclonal antibody, obtained from CisBio, 1:80 dilution) were added with BioRAPTR FRD™ (Beckman Coulter). The plates were incubated at room temperature for 20 h. The signal was measured by EnVision Multilabel Plate Reader (PerkinElmer) with excitation at 330 nm, emission at 620 nm (donor) and 665 nm (acceptor). Results were calculated and analyzed in a format of the ratio 665 nm/620 nm multiplied by 10^4.
Relative activity was calculated by normalizing each HTRF signal from each sample well to the mean HTRF signal from the DMSO-only control wells.
The Library of Pharmacologically Active Compounds (LOPAC, 1280 compounds) and the Molecular Library Small Molecular Repository Library (MLSMR, 373,868 compounds) were obtained from Sigma-Aldrich.
Quantitative HTS (qHTS) and curve response class classification
The qHTS screen was performed as described previously1. Each compound was titrated in seven concentrations. The final concentrations of the compounds assayed ranged from 4.9 nM to 76.6 µM. The curve response classifications (CRC), which can be used to depict potency, efficacy and reliability of the data, and to estimate an IC50 value, were determined by a customized software2. […]
Sigma-Aldrich) and the basal response (0% inhibition) was set to the DMSO control.
Efficacy of a compound refers to the highest response normalized to the maximal response of LY. The CRCs were grouped into 4 categories. Class 1 are well-fit and have both upper and lower asymptotes with efficacy greater than 30%
(Class1.1, >80% efficacy; Class 1.2; 30-80% efficacy). Class 2 are incomplete with only one asy mptote (Class 2.1, > 80% efficacy; Class 2.2, 30-80% % efficacy). Class 3 display activity only at the highest concentrations and efficacy >30%. Class 4 are with low efficacy (<30%) or no response and considered inactive3.
(Time-resolved FRET reads energy transfer from a long-lived donor to a nearby acceptor.)

A further experiment concerns the target T1, Akt (Mus musculus, UniProt P31750).
T1 construct: subjected to immunoprecipitation using protein G-plus and anti-AKT PH domain (Millipore); endogenous in cells; host or cells: Neuro 2A (mouse neuroblastoma), IGF-stimulated
Put plainly: Akt activity assay (immunoprecipitated Akt, K-Lisa). Type of experiment: cell-based. The conditions noted are these: LY at 125 µM. As for the experimental part: After overnight starvation by incubating with serum-free DMEM, Neuro 2A cells were treated with compound G7 at various concentrations for 30 min at room temperature followed by stimulation with IGF (final concentration of 100 ng/mL) for 30 min. Cells were lysed with lysis buffer containing 1% Triton X-100 and protease/phosphatase inhibitors (Cell Signaling Technology) and subjected to immunoprecipitation using protein G-plus and anti-AKT PH domain (Millipore). The activity of the immunopurified Akt was evaluated using a K-Lisa Akt activity kit (Millipore) in accordance with manufacturer’s instructions. The activity was normalized to Akt level in the immunoprecipitates determined by quantitative western blot analysis.

For another experiment, the system named is Neuro 2A cells. Nature of the experiment: MTS cell proliferation assay. Type of experiment: cell-based, Mouse. The conditions noted are these: 1 day. How it is done:
as §1

The next experiment relates to mTORC2. Also on record: method as in PMID 22614243. The following applies: cited from earlier work.

T1 sequence (P31750 whole entry, the tested form may be a part): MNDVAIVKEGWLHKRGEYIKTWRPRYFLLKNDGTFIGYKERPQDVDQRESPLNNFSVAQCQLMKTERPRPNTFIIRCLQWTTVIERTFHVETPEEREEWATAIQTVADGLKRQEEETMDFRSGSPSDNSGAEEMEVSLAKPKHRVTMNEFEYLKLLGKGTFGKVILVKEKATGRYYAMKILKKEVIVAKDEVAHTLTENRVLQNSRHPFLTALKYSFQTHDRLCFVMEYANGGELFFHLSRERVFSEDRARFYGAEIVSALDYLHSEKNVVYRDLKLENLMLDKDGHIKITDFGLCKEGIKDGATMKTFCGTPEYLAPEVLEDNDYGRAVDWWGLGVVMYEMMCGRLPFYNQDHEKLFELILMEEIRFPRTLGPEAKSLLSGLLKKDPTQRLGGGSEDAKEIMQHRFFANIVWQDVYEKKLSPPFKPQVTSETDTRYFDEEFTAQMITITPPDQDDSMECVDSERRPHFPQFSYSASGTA

With `O=c1cc(N2CCOCC2)oc2c(-c3ccccc3)cccc12` [LY294002, 2-(4-morpholinyl)-8-phenyl-4H-1-benzopyran-4-one], the “proliferation of LNCaP prostate cancer cells” value in the experiment with LNCaP cells is listed as “inhibited the proliferation”. Moreover, the IC50 in the experiment on Akt S473 phosphorylation (inhibitor 15 min before IGF, read-out: IC50) stood at 25000 nM. For the same molecule, at Akt, the inhibition at 125 µM was ~90%. Further, the “proliferation of Neuro 2A cells” value with Neuro 2A cells was “inhibited the proliferation”.

For the molecule `NC1(c2ccc(-c3nc4ccn5c(=O)[nH]nc5c4cc3-c3ccccc3)cc2)CCC1` [MK-2206], the “effect on mTORC2 activity” value in the experiment with mTORC2 is “decrease mTORC2 activity”.

Take `CCC(=O)N1CCN(c2ccc(-n3c(=O)ccc4cnc5ccc(-c6cnc7ccccc7c6)cc5c43)cc2C(F)(F)F)CC1` [Torin 1, 1-(4-(4-Propionylpiperazin-1-yl)-3-(trifluoromethyl)phenyl)-9-(quinolin-3-yl)benzo[h][1,6]naphthyridin-2(1H)-one]: the “proliferation of LNCaP prostate cancer cells” value with LNCaP cells is recorded as “inhibited the proliferation”. In addition, the IC50 with Akt S473 phosphorylation (384-well format, read-out: IC50) was 20 nM; in the experiment with Akt S473 phosphorylation (1536-well, inhibitor 15 min before IGF, read-out: apparent IC50) it was ~20 nM. The “proliferation of Neuro 2A cells” value with Neuro 2A cells was “inhibited the proliferation”.

What is called IC50 is the midpoint of a concentration-inhibition curve. The inhibition is the drop in the measured response relative to a control, in per cent. Lower therefore signals a response near the control.
